One compound from ChEMBL document CHEMBL3785022, “Pharmacokinetics of cyclophosphamide and alkylating activity in man after intravenous and oral administration” (Br J Clin Pharmacol, 1979) can be followed below.

The nature of series [1]: First order rate constant for slow elimination phase in iv dosed lymphoma patient (6 patients) by two-compartmental open model. As to conditions: human, in vivo.
The nature of series [2]: Apparent volume of distribution of central compartment in iv dosed lymphoma patient (6 patients) by two-compartmental open model. As to conditions: human, in vivo.
A short description of series [3]: Apparent volume of distribution during terminal log-linear elimination phase in iv dosed lymphoma patient (6 patients) by two-compartmental open model. Particulars: human, in vivo.
Series [4] in a line: Elimination rate constant from central compartment in iv dosed lymphoma patient (6 patients) by two-compartmental open model. As to conditions: human, in vivo.
The nature of series [5]: Elimination rate constant in po dosed lymphoma patient (7 patients) by one compartment open model. As to conditions: human, in vivo.
A short description of series [6]: Half life in po dosed lymphoma patient (7 patients) by one compartment open model. Particulars: human, in vivo.
Series [7] is described as follows: Clearance in po dosed lymphoma patient (7 patients) by one compartment open model. As to conditions: human, in vivo.
Series [8] can be described thus: Drug excretion in po dosed lymphoma patient (7 patients) assessed as unchanged parent compound in urine. As to conditions: human.
Series [9] in a line: Renal clearance in lymphoma patient (7 patients). As to conditions: human, in vivo.
A short description of series [10]: Extraction ratio in lymphoma patient (7 patients). Particulars: human, in vivo.
Series [11] in a line: clinical. Particulars: human, plasma, iv, 11.3 mg/kg.
Series [12] in a line: clinical. As to conditions: human, in vivo, iv, 11.3 mg/kg.
Description: Elimination rate constant in lymphoma patient at 11.3 mg/kg, iv by one compartment open model
Series [13] can be described thus: clinical. As to conditions: human, in vivo, iv, 11.3 mg/kg. The source holds these as a separate data set.
Description: Elimination half life in lymphoma patient at 11.3 mg/kg, iv by one compartment open model
Series [14] can be described thus: clinical. Particulars: human, in vivo, iv, 11.3 mg/kg. This is another data set of the same source.
Description: Volume of distribution in lymphoma patient at 11.3 mg/kg, iv by one compartment open model
Series [15] can be described thus: clinical. As to conditions: human, in vivo, iv, 11.3 mg/kg. This is another data set of the same source.
Description: Clearance in lymphoma patient at 11.3 mg/kg, iv by one compartment open model

What is called half-life is how long it takes for the measured level to halve. One may read the CL/F as the apparent clearance, not corrected for the fraction that reaches the circulation. A word on the clearance: it is the volume of plasma or blood freed of the substance per unit of time. Lower therefore signals inefficient removal.

For the compound `O=P1(N(CCCl)CCCl)NCCCO1` (stereo not given) [CYCLOPHOSPHAMIDE ANHYDROUS], the k el in [1] was 2.53e-05 s⁻¹; in series [4], 5.56e-05 s⁻¹; in [5] it was 6.03e-05 s⁻¹; in “clinical [12]” it was 3e-05 s⁻¹. For the same compound, the Vd in [2] turned out to be 0.38 L/kg; in series [3], 0.71 L/kg; in the series “clinical [14]”, 0.9 L/kg. Also, the half-life in series [6] is 3.93 h; in “clinical [13]”, 6.42 h. Moreover, the CL/F in [7] is 1.55 mL/min/kg. Moreover, the dose excreted in series [8] was found to be 1.8%. This compound showed a CL renal in series [9] of 0.08 mL/min/kg. The hepatic extraction ratio in series [10] stood at 0.25. This compound also returned a C0 in “clinical [11]” of 12500 ng/mL. Moreover, in the series “clinical [15]”, the clearance was 1.62 mL/min/kg.
